For series [1], the system named is recombinant NL4-3 virus (nef section replaced with Renilla luciferase gene) in MT-2 cells. The series can be described thus: HIV cell culture assay (antiviral activity, luciferase readout). The series is classed as cell-based. Particulars: MT-2 cells infected for 4-5 days with recombinant NL4-3 luciferase virus. The method, boiled down: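 Serially diluted compounds were present throughout a 4-5 day infection of MT-2 cells by recombinant NL4-3 whose nef region partly encodes Renilla luciferase. Antiviral activity was taken from live-cell luciferase signal, with the 50% effective concentration fitted by the exponential median effect equation.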

The nature of series [2]: Compound cytotoxicity, XTT-based colorimetric assay. The class given is cell-based. To be noted: human, uninfected MT2 cells. The method, boiled down: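 XTT colorimetric read-out on day 4 gave CC50 values, using MT2 cells left uninfected but otherwise handled as in the antiviral assay.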
(In general: Tetrazolium dyes change colour on reduction, which living cells bring about.)

From patent publication US10954252B1, “Inhibitors of human immunodeficiency virus replication” (ViiV HEALTHCARE UK (NO.5) LIMITED, priority 2017, dated 2021) come the findings set out here.

The EC50 is the concentration needed to bring the measured effect to its halfway point. Usually CC50 stands for the concentration at which the toxic effect on the cells reaches its halfway point.

Turning to `COc1ccc2c(=O)n(-c3ccc(Cl)c4c(NS(C)(=O)=O)nn(CC(F)F)c34)c([C@H](Cc3cc(F)cc(F)c3)NC(=O)Cn3nc(C(F)F)c4c3C(F)(F)[C@@H]3C[C@H]43)nc2n1` (mixture of isomers) [Example 54.2, N-[(1S)-1-{3-[4-chloro-1-(2,2-difluoroethyl)-3-methanesulfonamido-1H-indazol-7-yl]-7-methoxy-4-oxo-3H,4H-pyrido[2,3-d]pyrimidin-2-yl}-2-(3,5-difluorophenyl)ethyl]-2-[(2S,4R)-9-(difluoromethyl)-5,5-difluoro-7,8-diazatricyclo[4.3.0.0^2,4]nona-1(6),8-dien-7-yl]acetamide], the EC50 in series [1] (Renilla, NL43, Table 1a) was 0.026 nM. This compound returned a CC50 at 4 days in series [2] (Table 1a, day 4, XTT) of more than 1000 nM.
For the compound `CNC(=O)c1cc(-c2cc3[nH]ncc3nc2[C@H](Cc2cc(F)cc(F)c2)NC(=O)Cn2nc(C(F)F)c3c2C(F)(F)[C@@H]2C[C@H]32)ccc1F` [Example 10.7, 5-(5-((S)-1-(2-((3bS,4aR)-3-(difluoromethyl)-5,5-difluoro-3b,4,4a,5-tetrahydro-1H-cyclopropa[3,4]cyclopenta[1,2-c]pyrazol-1-yl)acetamido)-2-(3,5-difluorophenyl)ethyl)-1H-pyrazolo[4,3-b]pyridin-6-yl)-2-fluoro-N-methylbenzamide], in series [1] (Renilla, NL43, Table 1), the EC50 came to 51 nM. For the same compound, the CC50 at 4 days in series [2] (Table 1, day 4, XTT) is more than 10000 nM.
Regarding `Cn1ccc2nc([C@H](Cc3cc(F)cc(F)c3)NC(=O)Cn3nc(C(F)F)c4c3C(F)(F)[C@@H]3C[C@H]43)c(-c3ccc(Cl)c4c(NS(C)(=O)=O)nn(C)c34)cc21` (single isomer, unassigned) [Example 119], the 50% effective concentration (EC50) in series [1] (Renilla, NL43, Table 1a) was 0.0924 nM. The CC50 at 4 days in series [2] (Table 1a, day 4, XTT) is more than 10000 nM.
As for `Cn1nc(NS(C)(=O)=O)c2c(Cl)ccc(-n3c([C@H](Cc4cc(F)cc(F)c4)NC(=O)Cn4nc(C(F)F)c5c4C(F)(F)[C@@H]4C[C@H]54)nc4ncccc4c3=O)c21` (single isomer, unassigned) [Example 10.39], the EC50 in series [1] (Table 1) worked out at 6.98 nM. For the same compound, in series [2] (Table 1, day 4, XTT), the CC50 at 4 days was more than 10000 nM.
For `COc1ccc2c(=O)n(-c3ccc(Cl)c4c(NS(=O)(=O)C5CC5)nn(CC(F)F)c34)c([C@H](Cc3cc(F)cc(F)c3)NC(=O)Cn3ccc(C4CC4)n3)nc2n1` (single isomer, unassigned) [Example 57.2], the EC50 in series [1] (Renilla, NL43, Table 1a) worked out at 0.33 nM. Besides, the CC50 at 4 days in series [2] (Table 1a, day 4, XTT) was more than 1000 nM.
As for `CCOc1ccc2c(=O)n(-c3ccc(Cl)c4c(NS(C)(=O)=O)nn(C)c34)c(C(Cc3cc(F)cc(F)c3)NC(=O)Cn3nc(C(F)F)c4c3C(F)(F)[C@@H]3C[C@H]43)nc2n1` (mixture of isomers) [Example 60.1], in series [1] (Renilla, NL43, Table 1a), the half-maximal effective concentration (EC50) came to 0.397 nM. The compound further registered a 50% cytotoxic concentration (CC50) at 4 days in series [2] (Table 1a, day 4, XTT) of more than 1000 nM.
For the compound `Cn1nc(NS(C)(=O)=O)c2c(Cl)ccc(-n3c([C@H](Cc4cc(F)cc(F)c4)NC(=O)Cn4nc(C(F)F)c5c4C(F)(F)[C@@H]4C[C@H]54)nc4c(C(N)=O)cccc4c3=O)c21` (single isomer, unassigned) [Example 106], the EC50 in series [1] (Renilla, NL43, Table 1a) turned out to be 23.8 nM. Besides, the half-maximal cytotoxic concentration (CC50) at 4 days in series [2] (Table 1a, day 4, XTT) is more than 1000 nM.
With `O=C(Cc1c[nH]c2ccc(F)cc12)NC(Cc1cc(F)cc(F)c1)c1nc2cn[nH]c2cc1-c1ccc2scnc2c1` (single isomer, unassigned) [Example 3.5, N-(1-(6-(benzo[d]thiazol-5-yl)-1H-pyrazolo[4,3-b]pyridin-5-yl)-2-(3,5-difluorophenyl)ethyl)-2-(5-fluoro-1H-indol-3-yl)acetamide], the concentration for a half-maximal effect (EC50) in series [1] (Table 1) is 20 nM. The compound also showed a CC50 at 4 days in series [2] (Table 1, day 4, XTT) of 32100 nM.
Regarding `N#Cc1cc(-c2cc3[nH]ncc3nc2[C@H](Cc2cc(F)cc(F)c2)NC(=O)Cn2nc(C(F)F)c3c2C(F)(F)[C@@H]2C[C@H]32)ccc1Cl` [Example 10.15, N—((S)-1-(6-(4-chloro-3-cyanophenyl)-1H-pyrazolo[4,3-b]pyridin-5-yl)-2-(3,5-difluorophenyl)ethyl)-2-((3bS,4aR)-3-(difluoromethyl)-5,5-difluoro-3b,4,4a,5-tetrahydro-1H-cyclopropa[3,4]cyclopenta[1,2-c]pyrazol-1-yl)acetamide], the EC50 in series [1] (Renilla, NL43, Table 1) is 1170 nM. For the same compound, the CC50 at 4 days in series [2] (Table 1, day 4, XTT) was determined as 5500 nM.
The like results for `O=C(Cn1nc(C(F)F)c2c1C(F)(F)[C@@H]1C[C@H]21)N[C@@H](Cc1cc(F)cc(F)c1)c1nc2cn[nH]c2cc1-c1ccc2c(c1)C(=O)NC2` [Example 10.14, 2-((3bS,4aR)-3-(difluoromethyl)-5,5-difluoro-3b,4,4a,5-tetrahydro-1H-cyclopropa[3,4]cyclopenta[1,2-c]pyrazol-1-yl)-N—((S)-2-(3,5-difluorophenyl)-1-(6-(3-oxoisoindolin-5-yl)-1H-pyrazolo[4,3-b]pyridin-5-yl)ethyl)acetamide] were, in that order, 2.5 nM and more than 10000 nM.
Consider `Cn1nc(NS(C)(=O)=O)c2c(Cl)ccc(-n3c([C@H](Cc4cc(F)cc(F)c4)NC(=O)Cn4nc(C(F)F)c5c4C(F)(F)[C@@H]4C[C@H]54)nc4c(F)ccc(F)c4c3=O)c21` (single isomer, unassigned) [Example 147], for which the EC50 in series [1] (Table 1a) is 27.9 nM. Also, the 50% cytotoxic concentration (CC50) at 4 days in series [2] (Table 1a, day 4, XTT) is more than 1000 nM.
Take `Cn1nc(NS(C)(=O)=O)c2c(Cl)ccc(-n3c([C@H](Cc4cc(F)cc(F)c4)NC(=O)Cc4n[nH]c5ccc(O)cc45)nc4ncccc4c3=O)c21` (single isomer, unassigned) [Example 49.1]: the EC50 in series [1] (Renilla, NL43, Table 1a) was 93 nM. This compound also registered a CC50 at 4 days in series [2] (Table 1a, day 4, XTT) of more than 1000 nM.
In the same order, the values of `Cn1nc(NS(C)(=O)=O)c2c(Cl)ccc(-n3c(C(Cc4cc(F)cc(F)c4)NC(=O)Cn4nc(C(F)F)c5c4C(F)(F)[C@@H]4C[C@H]54)nc4ncc(C#N)cc4c3=O)c21` (mixture of isomers) [Example 37.2, N-(1-(3-(4-chloro-1-methyl-3-(methylsulfonamido)-1H-indazol-7-yl)-6-cyano-4-oxo-3,4-dihydropyrido[2,3-d]pyrimidin-2-yl)-2-(3,5-difluorophenyl)ethyl)-2-((3bS,4aR)-3-(difluoromethyl)-5,5-difluoro-3b,4,4a,5-tetrahydro-1H-cyclopropa[3,4]cyclopenta[1,2-c]pyrazol-1-yl)acetamide] are 0.54 nM and more than 10000 nM.
In the same order, the values of `CC(C)c1ccc(-c2cc3[nH]ccc3nc2[C@H](Cc2cc(F)cc(F)c2)NC(=O)Cn2nc(C(F)F)c3c2C(F)(F)[C@@H]2C[C@H]32)cn1` [Example 81, 2-((3bS,4aR)-3-(difluoromethyl)-5,5-difluoro-3b,4,4a,5-tetrahydro-1H-cyclopropa[3,4]cyclopenta[1,2-c]pyrazol-1-yl)-N—((S)-2-(3,5-difluorophenyl)-1-(6-(6-isopropylpyridin-3-yl)-1H-pyrrolo[3,2-b]pyridin-5-yl)ethyl)acetamide] are 13.6 nM and 10000 nM.
As for `Cn1nc(NS(C)(=O)=O)c2c(Cl)ccc(-n3c([C@H](Cc4cc(F)cc(F)c4)NC(=O)Cn4nc(C(F)(F)F)c5c4CCC5)nc4ncccc4c3=O)c21` [Example 52, N-[(1S)-1-[3-(4-chloro-3-methanesulfonamido-1-methyl-1H-indazol-7-yl)-4-oxo-3H,4H-pyrido[2,3-d]pyrimidin-2-yl]-2-(3,5-difluorophenyl)ethyl]-2-[3-(trifluoromethyl)-1H,4H,5H,6H-cyclopenta[c]pyrazol-1-yl]acetamide], in series [1] (Renilla, NL43, Table 1a), the half-maximal effective concentration (EC50) came out at 0.039 nM. In series [2] (Table 1a, day 4, XTT), this compound returned a half-maximal cytotoxic concentration (CC50) at 4 days of more than 1000 nM.
For the compound `Cn1nc(NS(C)(=O)=O)c2c(Cl)ccc(-n3c([C@H](Cc4cc(F)cc(F)c4)NC(=O)Cn4nc(C(F)F)c5c4C(F)(F)[C@@H]4C[C@H]54)nc4cc(F)ccc4c3=O)c21` [Example 18, N—((S)-1-(3-(4-chloro-1-methyl-3-(methylsulfonamido)-1H-indazol-7-yl)-7-fluoro-4-oxo-3,4-dihydroquinazolin-2-yl)-2-(3,5-difluorophenyl)ethyl)-2-((3bS,4aR)-3-(difluoromethyl)-5,5-difluoro-3b,4,4a,5-tetrahydro-1H-cyclopropa[3,4]cyclopenta[1,2-c]pyrazol-1-yl)acetamide], the half-maximal effective concentration (EC50) in series [1] (Renilla, NL43, Table 1) is 36 nM. In series [2] (Table 1, day 4, XTT), the CC50 at 4 days was more than 10000 nM.
Regarding `Cn1nc(NS(C)(=O)=O)c2c(Cl)ccc(-n3c([C@H](Cc4cc(F)cc(F)c4)NC(=O)Cn4nc(C(F)F)c5c4C(F)(F)[C@@H]4C[C@H]54)nc4cccc(Cl)c4c3=O)c21` (single isomer, unassigned) [Example 22.2], the EC50 in series [1] (Renilla, NL43, Table 1) worked out at 130 nM. Moreover, the cytotoxic concentration (CC50) at 4 days in series [2] (Table 1, day 4, XTT) is more than 1000 nM.
As to `COc1ccc2c(=O)n(-c3ccc(Cl)c4c(NS(C)(=O)=O)nn(C)c34)c([C@H](Cc3cc(F)cc(F)c3)NC(=O)Cn3ccc(C4CC4)n3)nc2n1` (mixture of isomers) [Example 58.1, N-[(1S)-1-[3-(4-chloro-3-methanesulfonamido-1-methyl-1H-indazol-7-yl)-7-methoxy-4-oxo-3H,4H-pyrido[2,3-d]pyrimidin-2-yl]-2-(3,5-difluorophenyl)ethyl]-2-(3-cyclopropyl-1H-pyrazol-1-yl)acetamide], in series [1] (Table 1a), the EC50 came to 2.26 nM. The cytotoxic concentration (CC50) at 4 days in series [2] (Table 1a, day 4, XTT) is more than 1000 nM.
In the case of `Cn1nc(NS(C)(=O)=O)c2c(Cl)ccc(-n3c([C@H](Cc4cc(F)cc(F)c4)NC(=O)Cn4nc(C(F)F)c5c4C(F)(F)[C@@H]4C[C@H]54)nc4cc(S(C)(=O)=O)ccc4c3=O)c21` (mixture of isomers) [Example 199, N—((S)-1-(3-(4-chloro-1-methyl-3-(methylsulfonamido)-1H-indazol-7-yl)-7-(methylsulfonyl)-4-oxo-3,4-dihydroquinazolin-2-yl)-2-(3,5-difluorophenyl)ethyl)-2-((3bS,4aR)-3-(difluoromethyl)-5,5-difluoro-3b,4,4a,5-tetrahydro-1H-cyclopropa[3,4]cyclopenta[1,2-c]pyrazol-1-yl)acetamide], the EC50 in series [1] (Table 1a) was 32.8 nM. In series [2] (Table 1a, day 4, XTT), this compound registered a CC50 at 4 days of more than 1000 nM.
